Experimental data: patent US8304417B2, “Crystalline forms of 4-(6-chloro-2,3-methylenedioxyanilino)-7-[2-(4-methylpiperazin-1-yl)ethoxy]-5-tetrahydropyran-4-yloxyquinazoline” (AstraZeneca AB, priority 2004, dated 2012)
“Also recorded” adds a separate entry of the source.

Key:
[1] = Solid-state form stability (storage, presence or absence of water); assay type: physicochemical
[2] = Hygroscopicity of the crystalline form (exposure to water vapour); assay type: physicochemical; details: solid form, exposure to water vapour during storage

Row | Compound | stability of the physical form [1] | hygroscopicity [2]
1 | 4-(6-chloro-2,3-methylenedioxyanilino)-7-[2-(4-methylpiperazin-1-yl)ethoxy]-5-tetrahydropyran-4-yloxyquinazoline sesquifumarate salt [AZD0530 sesquifumarate tetrahydrate] | of reasonable stability | 
2 | CN1CCN(CCOc2cc(OC3CCOCC3)c3c(Nc4c(Cl)ccc5c4OCO5)ncnc3c2)CC1.O=C(O)/C=C/C(=O)O.O=C(O)/C=C/C(=O)O [AZD0530 difumarate, 4-(6-chloro-2,3-methylenedioxyanilino)-7-[2-(4-methylpiperazin-1-yl)ethoxy]-5-tetrahydropyran-4-yloxyquinazoline difumarate salt] | does not readily change form during storage if exposed to water vapour | substantially non-hygroscopic
3 | CN1CCN(CCOc2cc(OC3CCOCC3)c3c(Nc4c(Cl)ccc5c4OCO5)ncnc3c2)CC1.O.O.O [AZD0530 trihydrate, 4-(6-chloro-2,3-methylenedioxyanilino)-7-[2-(4-methylpiperazin-1-yl)ethoxy]-5-tetrahydropyran-4-yloxyquinazoline trihydrate] | stable in the presence of water | 
4 | CN1CCN(CCOc2cc(OC3CCOCC3)c3c(Nc4c(Cl)ccc5c4OCO5)ncnc3c2)CC1 [anhydrous AZD0530, 4-(6-chloro-2,3-methylenedioxyanilino)-7-[2-(4-methylpiperazin-1-yl)ethoxy]-5-tetrahydropyran-4-yloxyquinazoline] | very stable in the absence of water; also recorded: prone to convert to AZD0530 trihydrate during storage if substantially anhydrous storage conditions are not maintained | 
